One may read the IC50 as the concentration that inhibits the measured activity by half.

For one assay, the system named is AGS cells (KRAS^G12D). Briefly: Detection of cell proliferation in vitro by MTT/MTS method (cell activity experiment). The class given is cell-based. To be noted: AGS cells; MTT/MTS; 3 days of drug treatment; read-out: AGS IC50. Summed up:
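After 3-day compound exposure (final DMSO 0.5%), viability of AGS (KRAS G12D) cells, plated 1000/well one day before dosing, was measured at 490 nm following 4 h MTT or MTS incubation. IC50 was fitted from dose–effect curves relative to DMSO-treated wells.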
For orientation: Formazan colour is commonly taken as a measure of viable cells.
For `CCC1CCc2cc(O)cc(-c3ccc4c(N5C[C@H]6CC[C@@H](C5)N6)nc(OC[C@@]56CCCN5C[C@H](F)C6)nc4c3F)c21` (single isomer, unassigned) [Example 284], the IC50 was found to be 2200 nM.
With `C#Cc1c(F)ccc2cc(O)cc(-c3ccc4c(N5C[C@H]6CC[C@@H](C5)C6[S+](C)[O-])nc(OC[C@@]56CCCN5C[C@H](F)C6)nc4c3F)c12` (stereo partly drawn) [Example 130, 5-ethynyl-6-fluoro-4-(8-fluoro-2-(((2R,7aS)-2-fluorotetrahydro-1H-pyrrolizin-7a(5H)-yl)methoxy)-4-((1R,5S, 8R)-8-(methylsulfinyl)-3-azabicyclo[3.2.1]octan-3-yl)quinazolin-7-yl)naphthalen-2-ol], the IC50 is greater than 2500 nM.
For the compound `C#Cc1c(F)ccc2cc(O)cc(-c3ccc4c(N5C[C@H]6CC[C@@H](C5)N6)c(F)c(OC[C@@]56CCCN5C[C@H](F)C6)nc4c3F)c12` [Example 335, 4-(4-((1R,5S)-3,8-diazabicyclo[3.2.1]octan-3-yl)-3,8-difluoro-2-(((2R,7aS)-2-fluorotetrahydro-1H-pyrrolizin-7a(5H)-yl)methoxy)quinolin-7-yl)-5-ethynyl-6-fluoronanhthalen-2-ol], the half-inhibitory concentration (IC50) worked out at 20.7 nM.
Consider `CC1CCCc2cc(O)cc(-c3ccc4c(N5C[C@H]6CC[C@@H](C5)N6)nc(OC[C@@]56CCCN5C[C@H](F)C6)nc4c3F)c21` (single isomer, unassigned) [Example 287], for which the IC50 was found to be 2140 nM.

The same assay, now with this note: Homo sapiens, AGS, 72 h, AGS cells; MTT/MTS; 3 days of drug treatment; read-out: AGS IC50.
As to `CC[C@H]1CCCc2cc(O)cc(-c3ncc4c(N5CC6CCC(C5)N6)nc(OC[C@@]56CCCN5C[C@H](F)C6)nc4c3F)c21` (single isomer, unassigned) [Example 229, (S)-4-(4-((1R,5S)-3,8-diazabicyclo[3.2.1]octan-3-yl)-8-fluoro-2-(((2R,7aS)-2-fluorotetrahydro-1H-pyrrolizin-7a(5H)-yl)methoxy)pyrido[4,3-d]pyrimidin-7-yl)-5-ethyl-5,6,7,8-tetrahydronaphthalen-2-ol or (R)-4-(4-((1R,5S)-3,8-diazabicyclo[3.2.1]octan-3-yl)-8-fluoro-2-(((2R,7aS)-2-fluorotetrahydro-1H-pyrrolizin-7a(5H)-yl)methoxy)pyrido[4,3-d]pyrimidin-7-yl)-5-ethyl-5,6,7,8-tetrahydronaphthalen-2-ol], the IC50 turned out to be 2.5 nM.
As to `CCC1CCCc2cc(O)cc(-c3ccc4c(NCC5(N(C)C)CCC5)nc(OC[C@@]56CCCN5C[C@H](F)C6)nc4c3F)c21` (stereo partly drawn) [Example 428, 4-(4-(((1-(dimethylamino)cyclobutyl)methyl)amino)-8-fluoro-2-(((2R,7aS)-2-fluorotetrahydro-1H-pyrrolizin-7a(5H)-yl)methoxy)quinazolin-7-yl)-5-ethyl-5,6,7,8-tetrahydronaphthalen-2-ol], the IC50 was 70 nM.
`N#Cc1c(OC[C@@]23CCCN2C[C@H](F)C3)nc2c(F)c(-c3cc(O)cc4ccc(F)c(F)c34)ccc2c1N1C[C@H]2CC[C@@H](C1)N2` [Example 179, 4-((1R,5S)-3,8-diazabicyclo[3.2.1]octan-3-yl)-7-(7,8-difluoro-3-hydroxynaphthalen-1-yl)-8-fluoro-2-(((2R,7aS)-2-fluorotetrahydro-1H-pyrrolizin-7a(5H)-yl)methoxy)quinoline-3-carbonitrile]: the concentration for half-maximal inhibition (IC50) was found to be 550 nM.
Still for that read-out and setting: in the case of `C#Cc1c(F)ccc2cccc(N3CCc4c(nc(OC[C@@]56CCCN5C[C@H](COC(=O)N(C)C)C6)nc4N4C[C@H]5CC[C@@H](C4)N5)C3)c12` [Example 211, ((2R,7aS)-7a-(((4-((1R,5S)-3,8-diazabicyclo[3.2.1]octan-3-yl)-7-(8-ethynyl-7-fluoronaphthalen-1-yl)-5,6,7,8-tetrahydropyrido[3,4-d]pyrimidin-2-yl)oxy)methyl)hexahydro-1H-pyrrolizin-2-yl)methyl dimethylcarbamate] it was 55 nM; in that of `CCC1COc2cc(O)cc(-c3ccc4c(N5C[C@H]6CC[C@@H](C5)N6)nc(OC[C@@]56CCCN5C[C@H](F)C6)nc4c3F)c21` (stereo partly drawn) [Example 292, 4-(4-((1R,5S)-3,8-diazabicyclo[3.2.1]octan-3-yl)-8-fluoro-2-(((2R,7aS)-2-fluorotetrahydro-1H-pyrrolizin-7a(5H)-yl)methoxy)quinazolin-7-yl)-3-ethyl-2,3-dihydrobenzofuran-6-ol], 40 nM.
As for `C#Cc1c(F)ccc2cc(O)cc(-c3ncc4c(N5CC(C#N)C5)nc(OC[C@@]56CCCN5C[C@H](F)C6)nc4c3F)c12` [Example 69, 1-(7-(8-ethynyl-7-fluoro-3-hydroxynaphthalen-1-yl)-8-fluoro-2-(((2R, 7aS)-2-fluorotetrahydro-1H-pyrrolizin-7a(5H)-yl)methoxy)pyrido[4,3-d]pyrimidin-4-yl) azetidine-3-carbonitrile], the IC50 was 411 nM.
For the compound `C#Cc1cccc2cc(O)cc(-c3ncc4c(N5CC6CCC(C5)C6O)nc(OC[C@@]56CCCN5C[C@H](F)C6)nc4c3F)c12` (stereo partly drawn) [Example 61, (1R,5S,8R)-3-(7-(8-ethynyl-3-hydroxynaphthalen-1-yl)-8-fluoro-2-(((2R, 7aS)-2-fluorotetrahydro-1H-pyrrolizin-7a(5H)-yl)methoxy)pyrido[4,3-d]pyrimidin-4-yl)-3-azabicyclo[3.2.1] octan-8-ol], the 50% inhibitory concentration (IC50) is greater than 2500 nM.
Take `CC1CCCc2cc(O)cc(-c3c(-c4cn[nH]c4)cc4c(N5C[C@H]6CC[C@@H](C5)N6)nc(OC[C@@]56CCCN5C[C@H](F)C6)nc4c3F)c21` (stereo partly drawn) [Example 376, 4-(4-((1R,5S)-3,8-diazabicyclo[3.2.1]octan-3-yl)-8-fluoro-2-(((2R,7aS)-2-fluorotetrahydro-1H-pyrrolizin-7a(5H)-yl)methoxy)-6-(1H-pyrazol-4-yl)quinazolin-7-yl)-5-methyl-5,6,7,8-tetrahydronaphthalen-2-ol]: the 50% inhibitory concentration (IC50) is 100 nM.
As for `Oc1cc2c(c(-c3ncc4c(N5C[C@H]6CC[C@@H](C5)N6)nc(OC[C@@]56CCCN5C[C@H](F)C6)nc4c3F)c1)C(CF)CCC2` (stereo partly drawn) [Example 262, 4-(4-((1R,5S)-3,8-diazabicyclo[3.2.1]octan-3-yl)-8-fluoro-2-(((2R,7aS)-2-fluorotetrahydro-1H-pyrrolizin-7a(5H)-yl)methoxy)pyrido[4,3-d]pyrimidin-7-yl)-5-(fluoromethyl)-5,6,7,8-tetrahydronaphthalen-2-ol], the 50% inhibitory concentration (IC50) was 305 nM.
On to `C#Cc1c(F)ccc2cc(O)cc(-c3ncc4c(N5CC6CCC(C5)C6O)nc(OC[C@@]56CCCN5C[C@H](F)C6)nc4c3F)c12` (stereo partly drawn) [Example 60, (1R,5S,8R)-3-(7-(8-ethynyl-7-fluoro-3-hydroxynaphthalen-1-yl)-8-fluoro-2-(((2R,7aS)-2-fluorotetrahydro-1H-pyrrolizin-7a(5H)-yl)methoxy)pyrido[4,3-d]pyrimidin-4-yl)-3-azabicyclo[3.2.1]octan-8-ol], for which the IC50 is greater than 2500 nM.
`O=C(CO)N1CCC(c2nc(OC[C@@]34CCCN3C[C@H](F)C4)nc3c(F)c(-c4cc(O)cc5ccc(F)c(F)c45)ncc23)C1` (stereo partly drawn) [Example 85, 1-(3-(7-(7,8-difluoro-3-hydroxynaphthalen-1-yl)-8-fluoro-2-(((2R,7aS)-2-fluorotetrahydro-1H-pyrrolizin-7a(5H)-yl)methoxy)pyrido[4,3-d]pyrimidin-4-yl)pyrrolidin-1-yl)-2-hydroxyethan-1-one]: the IC50 was greater than 1000 nM.
`Oc1cc(-c2ccc3c(N4C[C@H]5CC[C@@H](C4)S5)nc(OC[C@@]45CCCN4C[C@H](F)C5)nc3c2F)c2c(F)cccc2c1` [Example 167, 4-(4-((1R,5S)-8-thia-3-azabicyclo[3.2.1]octan-3-yl)-8-fluoro-2-(((2R,7aS)-2-fluorotetrahydro-1H-pyrrolizin-7a(5H)-yl)methoxy)quinazolin-7-yl)-5-fluoronaphthalen-2-ol]: the IC50 turned out to be 310 nM.
`C#Cc1cc2c(N3C[C@H]4CC[C@@H](C3)N4)nc(OC[C@@]34CCCN3C[C@H](F)C4)nc2c(F)c1-c1cc(O)cc2ccc(F)c(C#C)c12` [Example 373, 4-(4-((1R,5S)-3,8-diazabicyclo[3.2.1]octan-3-yl)-6-ethynyl-8-fluoro-2-(((2R,7aS)-2-fluorotetrahydro-1H-pyrrolizin-7a(5H)-yl)methoxy)quinazolin-7-yl)-5-ethynyl-6-fluoronaphthalen-2-ol]: the IC50 came out at 30 nM.
`CCC1CCCc2cc(O)cc(-c3cc4nc(OC[C@@]56CCCN5C[C@H](F)C6)nc(N5C[C@H]6CC[C@@H](C5)N6)c4c4occc34)c21` (stereo partly drawn) [Example 388, 4-(9-((1R,5S)-3,8-diazabicyclo[3.2.1]octan-3-yl)-7-(((2R,7aS)-2-fluorotetrahydro-1H-pyrrolizin-7a(5H)-yl)methoxy)furo[2,3-f]quinazolin-4-yl)-5-ethyl-5,6,7,8-tetrahydronaphthalen-2-ol]: the IC50 stood at 493 nM.
Still for that read-out and setting: with `C#Cc1c(F)ccc2cc(O)cc(-c3ncc4c(N5CC6CCC(C5)C6S(C)(=O)=O)nc(OC[C@@]56CCCN5C[C@H](F)C6)nc4c3F)c12` (stereo partly drawn) [Example 66, 5-ethynyl-6-fluoro-4-(8-fluoro-2-(((2R,7aS)-2-fluorotetrahydro-1H-pyrrolizin-7a(5H)-yl)methoxy)-4-((1R,5S, 8R)-8-(methylsulfonyl)-3-azabicyclo[3.2.1]octan-3-yl)pyrido[4,3-d]pyrimidin-7-yl) naphthalen-2-ol] the figure was greater than 10000 nM; with `Oc1cc2c(c(-c3ccc4c(N5C[C@H]6CC[C@@H](C5)N6)nc(OC[C@@]56CCCN5C[C@H](F)C6)nc4c3F)c1)C1CC1CC2` (stereo partly drawn) [Example 295, 7-(4-((1R,5S)-3,8-diazabicyclo[3.2.1]octan-3-yl)-8-fluoro-2-(((2R,7aS)-2-fluorotetrahydro-1H-pyrrolizin-7a(5H)-yl)methoxy)quinazolin-7-yl)-1a,2,3,7b-tetrahydro-1H-cyclopropa[a]naphthalen-5-ol], 183 nM.
With `CCc1coc2cc(O)cc(-c3ncc4c(N5C[C@H]6CC[C@@H](C5)N6)nc(OC[C@@]56CCCN5C[C@H](F)C6)nc4c3F)c12` [Example 244, 4-(4-((1R,5S)-3,8-diazabicyclo[3.2.1]octan-3-yl)-8-fluoro-2-(((2R,7aS)-2-fluorotetrahydro-1H-pyrrolizin-7a(5H)-yl)methoxy)pyrido[4,3-d]pyrimidin-7-yl)-3-ethylbenzofuran-6-ol], the IC50 stood at 59 nM.

Source of the values: patent US20240300980A1, “HETEROCYCLIC COMPOUNDS AS KRAS INHIBITOR, AND PREPARATION THEREFOR AND USE THEREOF IN TREATMENT” (SHANGHAI KECHOW PHARMA, INC., priority 2021, published 2024).
